In US20150197480A9 (Academia Sinica, priority 2013, published 2015):
Where two headings read alike, the source gives them in different places.

Legend:
GLP-1 = GLP-1 (Homo sapiens, UniProt P01275); test: Limited trypsin digestion of GLP-1 peptide; format: biochemical; conditions: free GLP-1 or with galanal b; preliminary observation
Excerpt: This is consistent with the finding that GPCR can exist in multiple active conformations, distinct conformation of the receptor is stabilized by distinct ligand structure and may lead to distinct signaling selectivity (55). […] There are at least two possible mechanisms to account for these observations. […] By binding to and modifying structural conformation of the receptor, the allosteric inhibitor of parturition (PDC 113.824) induces biased signaling when an orthosteric ligand is co-bound to the prostaglandin F2α receptor (56). […] Subtle conformation changes in peptide agonists can lead to selective coupling of the receptor to its downstream signaling pathway. As it has been shown in the case of biased agonist for the type 1 parathyroid hormone receptor (PTH1R) (25) and angiotensin II type 1A receptor ligands (57), subtle structure change of the peptide ligands can profoundly stabilize a distinct conformation of the receptor protein that selectively affects the coupling efficiency of a particular downstream signaling pathway.

GLP-1 receptor [1] = target: T1, GLP-1 receptor (Rattus norvegicus, UniProt P32301); conditions: for effect on GLP-1 dose-response curve / GLP-1 stimulated cAMP production: FIG. 9A; for intrinsic agonistic or antagonistic activity: summary of studies; for cAMP production by compound alone: absence of GLP-1
T1 sequence (P32301 22-463): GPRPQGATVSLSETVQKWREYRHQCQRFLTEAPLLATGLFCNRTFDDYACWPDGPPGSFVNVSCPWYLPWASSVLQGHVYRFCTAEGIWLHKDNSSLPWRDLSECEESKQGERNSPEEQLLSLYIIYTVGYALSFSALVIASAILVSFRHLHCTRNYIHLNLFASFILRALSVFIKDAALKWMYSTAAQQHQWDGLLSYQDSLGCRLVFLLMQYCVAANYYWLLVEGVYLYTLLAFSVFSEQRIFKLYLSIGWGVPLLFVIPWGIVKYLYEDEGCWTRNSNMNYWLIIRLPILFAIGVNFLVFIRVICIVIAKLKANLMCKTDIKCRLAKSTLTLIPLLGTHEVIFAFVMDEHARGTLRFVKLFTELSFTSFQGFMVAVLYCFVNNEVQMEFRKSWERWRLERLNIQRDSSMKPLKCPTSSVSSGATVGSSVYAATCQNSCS
Excerpt: (§1) In the resting stage when the intracellular cAMP is minimal, a large BRET ratio was observed.

PTHR = target: T2, PTHR (Homo sapiens, UniProt Q03431); test: PTH induced receptor endocytosis, PTHR/β-arrestin 2 GFP U2OS cells; format: cell-based; conditions: 15 nM of PTH; FIG. 5B
T2 construct: expressed in transfected cells
T2 sequence (Q03431 27-593): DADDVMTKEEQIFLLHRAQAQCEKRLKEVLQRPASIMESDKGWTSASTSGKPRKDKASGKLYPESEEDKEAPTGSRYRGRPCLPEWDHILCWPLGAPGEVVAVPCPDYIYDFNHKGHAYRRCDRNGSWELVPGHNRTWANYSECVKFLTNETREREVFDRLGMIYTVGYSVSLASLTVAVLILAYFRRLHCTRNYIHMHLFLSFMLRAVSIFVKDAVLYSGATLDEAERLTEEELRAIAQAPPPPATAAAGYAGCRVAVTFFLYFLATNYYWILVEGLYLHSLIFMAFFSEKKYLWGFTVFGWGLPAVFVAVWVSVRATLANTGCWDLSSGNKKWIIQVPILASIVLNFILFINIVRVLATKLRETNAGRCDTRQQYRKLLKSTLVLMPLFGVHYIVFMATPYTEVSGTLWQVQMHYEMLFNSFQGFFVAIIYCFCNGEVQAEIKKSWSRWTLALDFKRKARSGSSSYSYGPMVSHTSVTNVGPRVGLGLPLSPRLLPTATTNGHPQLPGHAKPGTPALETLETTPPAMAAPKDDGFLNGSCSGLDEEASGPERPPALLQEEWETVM
Protocol: The GLP-1R/3-arrestin2 GFP (Panel A) or PTHR/β-arrestin 2 GFP (Panel B) double stable expression U2OS cells were plated in 384-well plastic plates at a density of 3000 cell/well and cultured overnight.
U2OS osteosarcoma cell line stably expressing a β-arrestin2:GFP fusion protein was obtained from Norak Biosciences (now Molecular Devices, part of MDS Inc., Mississauga, Ontario). […] Extracts were supplied at a concentration of 100 mg/ml in 100% DMSO. […] The 3 cell assay plates were incubated at room temperature for 60 min before fixation with 2% formaldehyde and labeling of the cell nuclei with 5 μg/mL of the DNA-binding dye Hoechst 33342 (Molecular Probes, Eugene, Oreg.) for 1 hr. Plates were washed with PBS twice and sealed and could be stored at 4° C. The final concentration of the extract in the cell plate was 0.1, 0.03 and 0.001 mg/ml, and the final DMSO concentration was 1%.

GLP-1 receptor [2] = target: T3, GLP-1 receptor (Homo sapiens, UniProt P43220); test: Receptor endocytosis assay, U2OS cells co-expressing GLP-1 receptor and β-arrestin2:GFP; format: cell-based; conditions: for positive modulation effect on GLP-1 elicited receptor endocytosis in the presence of exendin 9: FIG. 8, plus 1.8 mM of Exendin 9; for Efficacy of GLP-1 to elicit receptor endocytosis: Table 2, printed (100%), GLP-1 only or GLP-1 plus indicated compound
T3 construct: expressed in transfected cells; host or cells: U2OS osteosarcoma cells stably expressing beta-arrestin2:GFP (Norak Biosciences)
T3 sequence (P43220 24-463, species assumed): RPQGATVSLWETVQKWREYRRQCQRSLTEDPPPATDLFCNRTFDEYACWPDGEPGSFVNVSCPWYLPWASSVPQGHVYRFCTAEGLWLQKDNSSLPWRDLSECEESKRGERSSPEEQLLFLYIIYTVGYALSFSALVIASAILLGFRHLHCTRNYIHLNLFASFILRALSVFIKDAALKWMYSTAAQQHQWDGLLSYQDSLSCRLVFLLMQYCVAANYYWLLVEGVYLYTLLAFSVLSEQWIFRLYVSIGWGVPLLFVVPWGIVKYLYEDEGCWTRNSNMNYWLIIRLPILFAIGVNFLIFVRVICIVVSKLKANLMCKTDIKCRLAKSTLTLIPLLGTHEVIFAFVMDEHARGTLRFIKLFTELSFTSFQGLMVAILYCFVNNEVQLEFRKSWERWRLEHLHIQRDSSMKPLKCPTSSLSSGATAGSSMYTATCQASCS
Protocol: U2OS osteosarcoma cell line stably expressing a β-arrestin2:GFP fusion protein was obtained from Norak Biosciences (now Molecular Devices, part of MDS Inc., Mississauga, Ontario). […] Extracts were supplied at a concentration of 100 mg/ml in 100% DMSO. […] Plates were washed with PBS twice and sealed and could be stored at 4° C. The final concentration of the extract in the cell plate was 0.1, 0.03 and 0.001 mg/ml, and the final DMSO concentration was 1%.
Images and data of the cells were performed according to reported methods (51), using an ArrayScan® VTI HCS Reader (Cellomics, Inc. Pittsburgh, Pa.). […] A 20×0.4 numerical aperture microscope objective was used for the imaging, 3 fields were imaged per well, and CELLOMICS's Spot Detector BIOAPPLICATION was used to acquire and analyze the images. For these experiments, the Spot Detector BIOAPPLICATION used the Hoechst-labeled nuclei to identify individual cells and then automatically counted and analyzed the GFP-labeled spots associate with each cell. In addition to the number of spots and the sum of their areas and pixel intensities, the BIOAPPLICATION also reports properties of the individual nuclei such as their area.
One unit of activity is defined as the activity that will reach 50% of maximal response in a well of 384-well plate.
In addition, these processes can be visualized from its image (52), thus easily exclude false positive hits.

[3] = system: cAMP production elicited by glucagon; conditions: 0.025 mg/ml; FIG. 11
Excerpt: as §1

[4] = system: cAMP production elicited by GIP; conditions: 0.025 mg/ml; FIG. 11
Excerpt: as §1

GLP-1 receptor [5] = target: T1, GLP-1 receptor; test: cell-based
Excerpt: as §1

Sequence of GLP-1 (P01275 98-127 limits assumed): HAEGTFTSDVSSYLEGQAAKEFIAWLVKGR

`CC1(C)CCC[C@]2(C)[C@H]3CC=C(CO)C[C@@H](O)[C@@H]3CC[C@@H]12` (racemic) [RJ-013, (±)-(6aS,7R,11aS,11bR)-9-(hydroxymethyl)-4,4,11b-trimethyl-2,3,4,4a,5,6,6a,7,8,11,11a,11b-dodecahydro-1H-cyclohepta[a]naphthalen-7-ol] showed a melting point of 134 to 135 °C.

`COC(=O)[C@@H]1CC[C@H]2C(CC[C@H]3C(C)(C)CCC[C@]23C)C(=O)C1` (mixture of isomers) [RJ-015, (±)-(6aS,11aS,11bR)-methyl 4,4,11b-trimethyl-7-oxotetradecahydro-1H-cyclo-hepta-[a]naphthalene-9-carboxylate] showed a melting point of 67 to 68 °C.

With `CC[C@H](C)[C@H](NC(=O)[C@H](Cc1ccccc1)NC(=O)[C@H](CCC(=O)O)NC(=O)[C@H](CCCCN)NC(=O)[C@H](C)NC(=O)[C@H](C)NC(=O)[C@H](CCC(N)=O)NC(=O)CNC(=O)[C@H](CCC(=O)O)NC(=O)[C@H](CC(C)C)NC(=O)[C@H](Cc1ccc(O)cc1)NC(=O)[C@H](CO)NC(=O)[C@H](CO)NC(=O)[C@@H](NC(=O)[C@H](CC(=O)O)NC(=O)[C@H](CO)NC(=O)[C@@H](NC(=O)[C@H](Cc1ccccc1)NC(=O)[C@@H](NC(=O)CNC(=O)[C@H](CCC(=O)O)NC(=O)[C@H](C)NC(=O)[C@@H](N)Cc1c[nH]cn1)[C@@H](C)O)[C@@H](C)O)C(C)C)C(=O)N[C@@H](C)C(=O)N[C@@H](Cc1c[nH]c2ccccc12)C(=O)N[C@@H](CC(C)C)C(=O)N[C@H](C(=O)N[C@@H](CCCCN)C(=O)NCC(=O)N[C@@H](CCCNC(=N)N)C(=O)NCC(=O)O)C(C)C` [GLP-1] the “degradation of GLP-1 by limited trypsin digestion” value (GLP-1) was “quickly degraded”.

For `Cl.c1ccc(C2CCCC2NC2=NCCCCCCCCCCC2)cc1` (stereo not drawn) [MDL 12330A, reference compound], the “GLP-1 or forskolin dose response of cAMP (BRET ratio) in presence of inhibitor” value (GLP-1 receptor [1]; 250 μM) was “eliminated”.

With `CC1(C)CCC[C@]2(C)[C@H]3CC=C(C=O)C[C@@H](O)[C@]3(C=O)CC[C@@H]12` [galanal B] the “potentiation effect on PTH induced receptor endocytosis (selectivity)” value (PTHR) was “selective for GLP-1 but not for PTH”, the “EC50 to potentiate receptor endocytosis elicited by 4 nM GLP-1” value (GLP-1 receptor [2]; 4 nM GLP-1) was 0.24 mg/L and the “GLP-1 response potentiated by the fraction” value (GLP-1 receptor [2]; 0.0002 mg/ml, 4 nM GLP-1, from 20%) was 40%.

For `CC1(C)CCC[C@@]2(C)C1CC[C@@]1(C=O)[C@H](O)CC(C=O)=CC[C@@H]12` (stereo partly drawn) [galanal B], the “potentiation effect on PTH induced receptor endocytosis (selectivity)” value (PTHR) was “did not show similar effect on PTH and its cognate receptor”, the “degradation of GLP-1 by limited trypsin digestion” value (GLP-1) was “protects GLP-1 from trypsin degradation” and the “increase of the affinity of GLP-1” value (GLP-1 receptor [2]; FIG. 5C, 0.001 mg/ml of galanal B) was 4 folds. The “positive modulation effect on GLP-1 elicited receptor endocytosis in the presence of exendin 9” value (GLP-1 receptor [2]) was “diminished”, the “Efficacy of GLP-1 to elicit receptor endocytosis” value (GLP-1 receptor [2]) was 115.2% and the “effect on GLP-1 dose-response curve / GLP-1 stimulated cAMP production” value (GLP-1 receptor [1]; RINm5F cells) was “did not significantly affect”. The “effect on GLP-1 dose-response curve / GLP-1 stimulated cAMP production” value (GLP-1 receptor [1]; RINm5F cells, listed as galanal b) was “neutral”, the “cAMP production by 3 nM of GLP-1” value (GLP-1 receptor [1]; galanal B up to 0.04 mg/ml, FIG. 9B) was “not changed” and the “intrinsic agonistic or antagonistic activity” value (GLP-1 receptor [1]) was “without intrinsic agonistic or antagonistic activity”.

For `COc1cc(C2C(NC(=O)c3ccc(NC(=O)OC(C)(C)C)cc3)(C(=O)O)C(c3ccc(OC(=O)c4cccs4)c(OC)c3)C2(NC(=O)c2ccc(NC(=O)OC(C)(C)C)cc2)C(=O)O)ccc1OC(=O)c1cccs1` (stereo not drawn) [Boc5, reference compound], the “concentration needed to stimulate low level cAMP production, fold higher” value (GLP-1 receptor [1]; RINm5F cells) was 1000 fold.

For `CC1(C)CCC[C@@]2(C)[C@H]1CC[C@@]1(CO)C(O)CC(CO)=CC[C@@H]12` (stereo partly drawn) [compound 2], the “effect on cAMP production elicited by glucagon” value [3] was “do not affect”, the “effect on cAMP production elicited by GIP” value [4] was “do not affect” and the EC50 (GLP-1 receptor [5]) was 3.1 µM. For the same compound, the “positive modulation effect on GLP-1 elicited receptor endocytosis in the presence of exendin 9” value (GLP-1 receptor [2]) was “diminished”, the “Efficacy of GLP-1 to elicit receptor endocytosis” value (GLP-1 receptor [2]) was 82% and the “concentration at which enhancement of cAMP production became saturated” value (GLP-1 receptor [1]; 3 nM of GLP-1, FIG. 9B) was 0.03 mg/mL. The “left shift of dose response curve of GLP-1” value (GLP-1 receptor [1]; 0.0025 mg/ml of compound 2) was 2.5 orders of magnitude, the “potentiating effect on GLP-1 stimulated cAMP production in presence of exendin 9 or MDL12330A” value (GLP-1 receptor [1]; FIG. 10A, 10B) was “blocked” and the “effect on cAMP production by small molecule agonist Boc5” value (GLP-1 receptor [1]; RINm5F cells) was “little effect”. The “potentiation of the affinity of GLP-1 / GLP-1 dependent cAMP production” value (GLP-1 receptor [1]; RINm5F cells) was “up to 1000 fold”, the “potentiation of the affinity of GLP-1 / GLP-1 dependent cAMP production” value (GLP-1 receptor [1]; RINm5F cells, listed as Compound 2) was 1000 fold and the “cAMP production by compound alone” value (GLP-1 receptor [1]) was “not able to induce cAMP production”. The “cAMP production by compound alone” value (GLP-1 receptor [1]; listed as Compound 2) was “does not elicit cAMP production in the absence of GLP-1” and the “intrinsic agonistic or antagonistic activity” value (GLP-1 receptor [1]) was “without intrinsic agonistic or antagonistic activity”.

With `COC(=O)C1=CCC2C(CO)(CCC3C(C)(C)CCCC32C)C(=O)C1` [RJ-022, (6aR,1aR,11bS)-methyl6a-(hydroxymethyl)-4,4,11b-trimethyl-7-oxo-2,3,4,4a,5,6,6a,7,8,11,11a,11b-dodecahydro-1H-cyclohepta[a]naphthalene-9-carboxylate] the melting point was 179 to 180 °C.

In the case of `COC(=O)C1=CC[C@H]2[C@@H](CC[C@H]3C(C)(C)CCC[C@]23C)C(=O)C1` (racemic) [RJ-011, (±)-(6aS,11aS,11bR)-methyl 4,4,11b-trimethyl-7-oxo-2,3,4,4a,5,6,6a,7,8,11,11a,11b-dodecahydro-1H-cyclohepta[a]naphthalene-9-carboxylate], the melting point is reported as 93 to 94 °C.
